Results reported in US8871227B2, “Process and formulation containing epothilones and analogs thereof” (Bristol-Myers Squibb Company, priority 2003, dated 2014).

Experiments:
Type in all cases: physicochemical
[1] = Stability of aqueous solution: time for 5% drug loss (t95); details: 25°
Method: The compounds represented by formulae I and II present challenges from the viewpoint of pharmaceutical compounding for administration to patients for a number of reasons. […] Of particular concern with the present invention, compounds of formulae I and II can degrade when exposed to low pH, e.g., certain compounds of formula I presumably are susceptible to acids catalyzed hydrolysis. For example, the time for 5% drug loss (t95) at 25° for an aqueous solution of compound II is approximately 2 h at pH 7, but less than 0.2 h at pH 2.5.

[2] = pH of maximum stability
Excerpt: The term, “pH of maximum stability,” or “maximum stability pH” means the pH at which a compound (or mixture of compounds) is least likely to degrade, or at which the compound (or mixtures of compounds) will degrade most slowly. Each compound or mixture of compounds will have a pH of maximum stability. However, the pH of maximum stability also may encompass a range of pH's. […] In this case, the pH of maximum stability is 7.1±1.
For example, in the embodiment involving use of the epothilone analog of formula II, the pH of maximum stability is about 7.0. A preferred dose of this epothilone analog when diluted in the infusion fluid is approximately in the range of about 0.05 to about 1.0 mg/mL, more preferably in the range of about 0.1 to about 0.8 mg/mL, and most preferably in the range of about 0.2 to about 0.6 mg/mL. The inventors herein have determined that for this epothilone analog and preferred dose, an advantageous buffer is sodium lactate, and a preferred concentration of this buffer in the formulation for administration is in the range of about 3 to about 30 mg/mL, more preferably in the range of about 10 to about 20 mg/mL, even more preferably at a concentration of about 15 mg/mL. […]

[3] = Infusion stability: loss of potency over six hour hold time after dilution in infusion fluid; details: for loss of potency (degradation of active compound) / loss of potency (degradation in active compound): 0.2 mg/mL; for loss of potency (degradation of active compound): with buffer and base; for loss of potency (degradation in active compound): without buffer and base
Method: To illustrate the surprising advantages of the invention, a formulation including the compound of formula II was diluted in a 0.9% Sodium Chloride Injection infusion fluid to a concentration of 0.2 mg/mL, without buffer and base. […] As a further illustration, a formulation including the compound of formula II was diluted in a 5% dextrose injection fluid to a concentration of 0.2 mg/mL, without buffer and base.

[4] = Degradation during dissolution and lyophilization; details: tertiary butanol/water 1:1, lyophilized at −30° C. about 100 hours, dried at 25° C. about 35 hours, light protected
Method: [1S-[1R*,3R*(E),7R*,10S*,11R*,12R*,16S*]]-7,11-Dihydroxy-8,8,10,12,16-pentamethyl-3-[1-methyl-2-(2-methyl-4-thiazolyl)ethenyl]-4-aza-17-oxabicyclo[14.0]heptadecane-5,9-dione, 4.04 g, was wetted/partially dissolved with 500 mL of a 4:1 mixture of tertiary butanol and Water for Injection USP which had been pre-cooled to 5° C. Once the drug powder had become completely wetted, dissolution was completed by the addition of […] Water for Injection, thereby making the final solution a 1:1 mixture. The dissolution was carried out under protection from light.
The solution formed above was promptly lyophilized in a Virtis GENESIS lyophilizer at −30° C. under light protected conditions over a period of about 100 hours. The resultant lyophilized product (lyophile) was then further dried at 25° C. under high vacuum for about 35 hours. […] The lyophile was packaged under sterile conditions into 15 mL vials, each containing 20 mg of drug and standard excess to allow for vial/needle/syringe loss.

C/C(=C\c1csc(C)n1)C1CC2O[C@]2(C)CCC[C@H](C)[C@H](O)[C@@H](C)C(=O)C(C)(C)[C@@H](O)CC(=O)N1 (relative stereo) [II, [1S-[1R*,3R*(E),7R*,10S*,11R*,12R*,16S*]]7,11-Dihydroxy-8,8,10,12,16-pentamethyl-3-[1-methyl-2-(2-methyl-4-thiazolyl)ethenyl]-4-aza-7oxabicyclo[14.1.0]heptadecane-5,9-dione]
time for 5% drug loss (t95) ([1]; pH 2.5): less than 0.2 h
time for 5% drug loss (t95) ([1]; pH 7): approximately 2 h
pH of maximum stability [2]: about 7.0
loss of potency (degradation of active compound) ([3]; 0.9% Sodium Chloride Injection): about 3.6%
loss of potency (degradation in active compound) ([3]; 0.9% Sodium Chloride Injection): about 6%
enhancement in stability ([3]; 0.9% Sodium Chloride Injection, with vs without buffer and base): approximately 40%
loss of potency (degradation of active compound) ([3]; 5% dextrose injection fluid): about 4%
loss of potency (degradation in active compound) ([3]; 5% dextrose injection fluid): about 13%
enhancement of stability ([3]; 5% dextrose injection fluid, with vs without buffer and base): greater than 65%
degradation of the drug during dissolution, lyophilization and drying [4]: No detectable degradation
